ChEMBL document CHEMBL1201862, “PubChem BioAssay data set” (2004)
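48-hour exposure; five concentrations; linearly interpolated endpoints. GI50 is the concentration that inhibits growth by half.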 Activity calls are given as the source filed them. Cut-off read from the data, not from the text of the source: active = GI50 up to about 1.1 µM and inactive = higher.

Columns and labels:
Test in all cases: inhibition of tumour cell growth, NCI panel, 48 h
A549 = system: A549
CAKI-1 = system: CAKI-1
COLO 205 = system: COLO 205
EKVX = system: EKVX
HCC 2998 = system: HCC 2998
HCT-15 = system: HCT-15
IGROV-1 = system: IGROV-1
KM12 = system: KM12
LOX IMVI = system: LOX IMVI
M14 = system: M14
Malme-3M = system: Malme-3M
NCI-H23 = system: NCI-H23
OVCAR-3 = system: OVCAR-3
OVCAR-5 = system: OVCAR-5
OVCAR-8 = system: OVCAR-8
SK-OV-3 = system: SK-OV-3
SN12C = system: SN12C
SW-620 = system: SW-620
TK-10 = system: TK-10
UACC-62 = system: UACC-62

O=C1c2cccc3cccc(c23)C(=O)N1O
GI50 (A549): 77.1 µM (inactive) | GI50 (CAKI-1): 49.8 µM (inactive) | GI50 (COLO 205): > 100 µM (inactive) | GI50 (EKVX): > 100 µM (inactive) | GI50 (HCC 2998): 75 µM (inactive) | GI50 (HCT-15): 40.9 µM | GI50 (IGROV-1): 20.2 µM (inactive) | GI50 (KM12): 45.4 µM (inactive) | GI50 (LOX IMVI): 53.2 µM (inactive) | GI50 (M14): 51.9 µM (inactive) | GI50 (Malme-3M): > 100 µM (inactive) | GI50 (NCI-H23): 74.8 µM (inactive) | GI50 (OVCAR-3): 57.4 µM (inactive) | GI50 (OVCAR-5): > 100 µM (inactive) | GI50 (OVCAR-8): 56.6 µM (inactive) | GI50 (SK-OV-3): 68.2 µM (inactive) | GI50 (SN12C): 54.1 µM (inactive) | GI50 (SW-620): 14.5 µM (inactive) | GI50 (TK-10): > 100 µM (inactive) | GI50 (UACC-62): > 100 µM (inactive)

C/C(=N\NC(=O)c1ccncc1)c1sc(-n2nc(-c3ccccc3)cc2-c2ccccc2)nc1C
GI50 (A549): > 31.6 µM (inactive) | GI50 (CAKI-1): 98.4 µM (inactive) | GI50 (COLO 205): > 100 µM (inactive) | GI50 (EKVX): 47.8 µM (inactive) | GI50 (HCC 2998): > 31.6 µM (inactive) | GI50 (HCT-15): > 31.6 µM | GI50 (IGROV-1): > 33.7 µM (inactive) | GI50 (KM12): 99.5 µM (inactive) | GI50 (LOX IMVI): > 80.9 µM (inactive) | GI50 (M14): > 31.6 µM (inactive) | GI50 (Malme-3M): > 56.2 µM (inactive) | GI50 (NCI-H23): > 31.6 µM (inactive) | GI50 (OVCAR-3): 25.1 µM (inactive) | GI50 (OVCAR-5): > 31.6 µM (inactive) | GI50 (OVCAR-8): > 100 µM (inactive) | GI50 (SK-OV-3): > 31.6 µM (inactive) | GI50 (SN12C): > 100 µM (inactive) | GI50 (SW-620): > 31.6 µM (inactive) | GI50 (TK-10): > 31.6 µM (inactive) | GI50 (UACC-62): > 31.6 µM (inactive)

NC(CCCCNCc1ccccc1)C(=O)O (stereo not given)
GI50 (A549): > 100 µM (inactive) | GI50 (CAKI-1): > 100 µM (inactive) | GI50 (COLO 205): > 100 µM (inactive) | GI50 (EKVX): > 100 µM (inactive) | GI50 (HCC 2998): > 100 µM (inactive) | GI50 (HCT-15): > 100 µM | GI50 (IGROV-1): > 100 µM (inactive) | GI50 (KM12): > 100 µM (inactive) | GI50 (LOX IMVI): > 100 µM (inactive) | GI50 (M14): > 100 µM (inactive) | GI50 (Malme-3M): > 100 µM (inactive) | GI50 (NCI-H23): > 100 µM (inactive) | GI50 (OVCAR-3): > 100 µM (inactive) | GI50 (OVCAR-5): > 100 µM (inactive) | GI50 (OVCAR-8): > 100 µM (inactive) | GI50 (SK-OV-3): > 100 µM (inactive) | GI50 (SN12C): > 100 µM (inactive) | GI50 (SW-620): > 100 µM (inactive) | GI50 (TK-10): > 100 µM (inactive) | GI50 (UACC-62): > 100 µM (inactive)

CCCCNC(=O)OCCN=C1c2ccccc2C(Br)C(Br)c2ccccc21 (stereo not given)
GI50 (A549): 83.9 µM (inactive) | GI50 (CAKI-1): 25.6 µM (inactive) | GI50 (COLO 205): 20.2 µM (inactive) | GI50 (EKVX): 20.3 µM (inactive) | GI50 (HCC 2998): > 100 µM (inactive) | GI50 (HCT-15): 16 µM | GI50 (IGROV-1): 49.8 µM (inactive) | GI50 (KM12): 45.6 µM (inactive) | GI50 (LOX IMVI): 20 µM (inactive) | GI50 (M14): 19.4 µM (inactive) | GI50 (Malme-3M): 23.3 µM (inactive) | GI50 (NCI-H23): 26.3 µM (inactive) | GI50 (OVCAR-3): 19.9 µM (inactive) | GI50 (OVCAR-5): > 100 µM (inactive) | GI50 (OVCAR-8): 27.6 µM (inactive) | GI50 (SK-OV-3): 32.1 µM (inactive) | GI50 (SN12C): 32.9 µM (inactive) | GI50 (SW-620): 40.2 µM (inactive) | GI50 (TK-10): 25.4 µM (inactive) | GI50 (UACC-62): > 100 µM (inactive)

CCCCCCCCCCCCCCCCP(=O)([O-])OCC[N+](C)(C)C
GI50 (A549): 18.1 µM (inactive) | GI50 (CAKI-1): 12.1 µM (inactive) | GI50 (COLO 205): 6.58 µM (inactive) | GI50 (EKVX): 20.1 µM (inactive) | GI50 (HCC 2998): 6.19 µM (inactive) | GI50 (HCT-15): 6.56 µM | GI50 (IGROV-1): 1.56 µM (inactive) | GI50 (KM12): 2.61 µM (inactive) | GI50 (LOX IMVI): 14.9 µM (inactive) | GI50 (M14): 15.3 µM (inactive) | GI50 (Malme-3M): 21.3 µM (inactive) | GI50 (NCI-H23): 20.2 µM (inactive) | GI50 (OVCAR-3): 17.1 µM (inactive) | GI50 (OVCAR-5): 8.55 µM (inactive) | GI50 (OVCAR-8): 16.9 µM (inactive) | GI50 (SK-OV-3): 7.4 µM (inactive) | GI50 (SN12C): 12.9 µM (inactive) | GI50 (SW-620): 14.5 µM (inactive) | GI50 (TK-10): 1.5 µM (inactive) | GI50 (UACC-62): 13.9 µM (inactive)

CCN(CC)CCNC(=O)c1cc2cc(NC(=O)c3cc4cc(NC(=O)c5cc6cc(N)ccc6[nH]5)ccc4[nH]3)ccc2[nH]1
GI50 (A549): > 100 µM (inactive) | GI50 (CAKI-1): > 100 µM (inactive) | GI50 (COLO 205): > 100 µM (inactive) | GI50 (EKVX): > 100 µM (inactive) | GI50 (HCC 2998): > 100 µM (inactive) | GI50 (HCT-15): > 100 µM | GI50 (IGROV-1): > 100 µM (inactive) | GI50 (KM12): > 100 µM (inactive) | GI50 (LOX IMVI): > 100 µM (inactive) | GI50 (M14): > 100 µM (inactive) | GI50 (Malme-3M): > 100 µM (inactive) | GI50 (NCI-H23): > 100 µM (inactive) | GI50 (OVCAR-3): > 100 µM (inactive) | GI50 (OVCAR-5): > 100 µM (inactive) | GI50 (OVCAR-8): > 100 µM (inactive) | GI50 (SK-OV-3): > 100 µM (inactive) | GI50 (SN12C): > 100 µM (inactive) | GI50 (SW-620): > 100 µM (inactive) | GI50 (TK-10): > 100 µM (inactive) | GI50 (UACC-62): > 100 µM (inactive)
